Measured values published in patent US7851437B2, “Drug conjugates and their use for treating cancer, an autoimmune disease or an infectious disease” (Seattle Genetics Inc., priority 2002, dated 2010).
*1 amine or outer side, *2 acyl side, *3 side chain or, on linkers, in order; H or OH if unused. Where a SMILES comes first, the peptide text is derived from it. [ ]: non-standard residue; d: D form. The star is where a group is joined. Dolaproine = CO[C@@H]([C@@H]1CCCN1)[C@@H](C)C(=O)O; Phenylenediamine(1,4) = c1cc(N[*:2])ccc1N[*:1]; Dil = CC[C@H](C)[C@H](NC)[C@@H](CC(=O)O)OC; NMe2Val = CC(C)[C@@H](C(=O)*)N(C)C; X1 = C[C@@H](N*)[C@@H](O)c1ccccc1; NMeV = CN[C@H](C(=O)O)C(C)C

System: H3396 human breast carcinoma cells (cBR96 antigen positive, cAC10 antigen negative)
Experiment: In vitro cytotoxicity, Alamar Blue assay, H3396 cells
Format: cell-based
Settings: exposure for 1 hour
From the text: The cell lines used were H3396 human breast carcinoma (cBR96 antigen positive, cAC10 antigen negative), HCT-116 human colorectal carcinoma (cBR96 and cAC10 antigen negative), and Karpas human anaplastic large cell lymphoma (ALCL) (cBR96 antigen negative, cAC10 antigen positive). These cell lines are available from ATCC. CD30-positive Hodgkin's Disease (HD) cell line L540 and the ALCL cell line Karpas 299 were obtained from the Deutsche Sammlung von Mikroorganism and Zellkulturen GmbH (Braunschweig, Germany). L540cy, a derivative of the HD line L540 adapted to xenograft growth, was provided by Dr. Phil Thorpe (U of Texas Southwestern Medical Center, Dallas, Tex.). Cell lines were grown in RPMI-1640 media (Life Technologies Inc., Gaithersburg, Md.) supplemented with 10% fetal bovine serum.H3396 cells in RPMI containing 10% fetal bovine serum (referred to as medium) were plated in 96-well plates at approximately 3,000-10,000 cells/well and allowed to adhere overnight. The non-adherent Karpas cell line was plated out at approximately 10,000 cells/well at the initiation of the assay. Various concentrations of illustrative Compounds of the Invention in medium were added in triplicate, and after the times indicated IN FIGS. 1-7, the medium was removed, and the cells were washed with fresh medium three times. After a 96 hour incubation period at 37° C., Alamar Blue was added and cell viability was determined 4 hours later as described by Ahmed S A, Gogal R M Jr, Walsh J E., J. Immunol. Methods, 170, 211-224, 1994.

[1] = concentrations between 0.01 mM and 1.0 mM

Compound	cytotoxicity (FIG. 1) [1]	cytotoxicity (FIG. 1) (concentrations of up to 0.01 mM)
CC[C@H](C)[C@@H]([C@@H](CC(=O)N1CCC[C@H]1[C@H](OC)[C@@H](C)C(=O)N[C@H](C)[C@@H](O)c1ccccc1)OC)N(C)C(=O)[C@@H](NC(=O)[C@@H](NC)C(C)C)C(C)C [Compound 49] (H-[NMeV]V[Dil][Dolaproine]-X1)	substantially equal cytotoxicity	
CC[C@H](C)[C@@H]([C@@H](CC(=O)N1CCC[C@H]1[C@H](OC)[C@@H](C)C(=O)N[C@@H](Cc1ccccc1)C(=O)Nc1ccc(N)cc1)OC)N(C)C(=O)[C@@H](NC(=O)[C@H](C(C)C)N(C)C)C(C)C [Compound 53] (NMe2Val-V[Dil][Dolaproine]F-{Phenylenediamine(1,4)})	substantially equal cytotoxicity	more cytotoxic than Compound 49
